# Data from PMC10879537 (Nature Communications, 2024).
# Where “and” joins values, the source holds several entries; their conditions need not be identical. Identical values can stand only once. Like-named read-outs stand apart in the source and are kept apart here.
# Key:
# GX_P2V [1] = test: organism not typed; type: cell-based, Guangxi pangolin-CoV (GX_P2V); conditions: for inhibition at 0.49485 µM / inhibition at 1.69897 µM / inhibition at 0.193125 µM / inhibition at 0.39 µM / inhibition at 0.79588 µM / inhibition at 1.09691 µM / inhibition at 1.39794 µM / inhibition at 0.78 µM / inhibition at 0.193 µM / inhibition at 0.495 µM / inhibition at 0.796 µM / inhibition at 1.097 µM / inhibition at 1.398 µM / inhibition at 1.699 µM: Vero C1008, 48 h, read-out: Percentage of Inhibition (%)
# [2] = tested on: SARS-CoV-2 pseudotyped virus; test: microbe, parasite or virus in culture; type: cell-based; conditions: read-out: EC50 SARS-CoV-2pseudotypedvirus
# [3] = tested on: SARS-CoV-2 live virus (SARS-CoV-2/WH-09/human/2020/CHN); test: microbe, parasite or virus in culture; type: cell-based
# PEDV strain CV777 = test: microbe, parasite or virus in culture; type: cell-based, porcine epidemic diarrhea virus (PEDV); conditions: read-out: EC50 against PEDV
# [4] = tested on: SADS-CoV strain CN/GDWT/2017; test: cells; type: cell-based, swine acute diarrhoea syndrome coronavirus (SADS-CoV); conditions: read-out: EC50 against SADS-CoV
# [5] = tested on: SARS-CoV pseudotyped virus; test: microbe, parasite or virus in culture; type: cell-based
# [6] = tested on: MERS-CoV pseudotyped virus; test: microbe, parasite or virus in culture; type: cell-based; conditions: read-out: EC50 against MERS-CoV pseudotyped virus
# GX_P2V [7] = test: organism not typed; type: cell-based, Guangxi pangolin-CoV (GX_P2V)
# SARS-CoV-2 trVLP [8] = type: cell-based
# SARS-CoV-2 trVLP [9] = conditions: read-out: EC50 SARS-CoV-2 trVLP
# Vero E6 cells = test: cells; conditions: Chlorocebus sabaeus, Vero C1008, 48 h, read-out: Cytoxicity (%)
# SARS-CoV-2 trVLP [10] = test: microbe, parasite or virus in culture; conditions: Severe acute respiratory syndrome coronavirus 2, read-out: EC50 against SARS-CoV-2 trVLP
# [11] = Vero C1008, read-out: EC50 against GX_P2V
compound,measurement,setting,value
isotetrandrine,Percentage of Inhibition (%),GX_P2V [1],100%
same,EC50,GX_P2V [1]; read-out: EC50 GX_P2V,7430 nM
same,EC50,[2],7.32 µM
same,EC50,[3]; read-out: SARS-CoV-2 (Vero E6) EC50,4.47 µM
same,EC50,PEDV strain CV777,1670 nM
same,EC50,[4],3.67 µM
same,Percentage of Inhibition (%),[5],83.000% and 63.000%
same,EC50,[5]; read-out: EC50 against SARS-CoV pseudotyped virus,4.77 µM
same,EC50,[6],3.31 µM
same,"Time of addition of anti-GX_P2V activity, Entry",GX_P2V [7],64.671 and 52.909 and 54.392
same,"Time of addition of anti-GX_P2V activity, Full-time",GX_P2V [7],95.271 and 94.111 and 93.848
same,"Time of addition of anti-GX_P2V activity, Post-entry",GX_P2V [7],79.054 and 80.217 and 78.230
same,"Time of addition of anti-SARS-CoV-2 trVLPs activity, Full-time",SARS-CoV-2 trVLP [8],69.205 and 66.812 and 64.054
same,"Time of addition of anti-SARS-CoV-2 trVLPs activity, Post-entry",SARS-CoV-2 trVLP [8],57.048 and 54.613 and 56.353
same,EC50,SARS-CoV-2 trVLP [9],2820 nM
COc1cc2c(cc1O)[C@@H]1Cc3ccc(OC)c(O)c3CN1CC2 [(S)-Scoulerine],inhibition at 0.49485 µM,GX_P2V [1],24.5%
same,cytotoxicity at 0.193125 µM,Vero E6 cells,25%
same,cytotoxicity at 0.39 µM,Vero E6 cells,27.5%
same,cytotoxicity at 0.49485 µM,Vero E6 cells,25.7%
same,cytotoxicity at 1.09691 µM,Vero E6 cells,33.9%
same,cytotoxicity at 1.69897 µM,Vero E6 cells,34%
"COc1cc2c(cc1O)C(Cc1ccc(O)cc1)NCC2 (stereo not drawn) [Compound 11, coclaurine]",inhibition at 0.49485 µM,GX_P2V [1],33.2%
same,inhibition at 1.69897 µM,GX_P2V [1],28.7%
same,cytotoxicity at 0.193125 µM,Vero E6 cells,8.1%
COc1cc2c(cc1O)[C@@H](Cc1ccc(O)cc1)N(C)CC2 [(R)-N-Methylcolaurine],inhibition at 0.193125 µM,GX_P2V [1],25.6%
same,inhibition at 0.39 µM,GX_P2V [1],94.8%
same,inhibition at 0.49485 µM,GX_P2V [1],55.7%
same,inhibition at 0.79588 µM,GX_P2V [1],56.1%
same,cytotoxicity at 0.193125 µM,Vero E6 cells,9.96%
same,cytotoxicity at 0.39 µM,Vero E6 cells,22.3%
same,cytotoxicity at 0.49485 µM,Vero E6 cells,20.1%
same,cytotoxicity at 0.78 µM,Vero E6 cells,13.4%
same,cytotoxicity at 0.79588 µM,Vero E6 cells,9.7%
same,cytotoxicity at 1.39794 µM,Vero E6 cells,23.2%
COc1cc2c(cc1O)-c1cc3ccc(OC)c(OC)c3c[n+]1CC2 [Columbamine],inhibition at 1.09691 µM,GX_P2V [1],49.9%
same,inhibition at 1.39794 µM,GX_P2V [1],66.7%
same,cytotoxicity at 0.79588 µM,Vero E6 cells,34.5%
"COc1cc2c(cc1O)[C@@H](Cc1ccc(Oc3cc(C[C@@H]4c5cc(O)c(OC)cc5CCN4C)ccc3O)cc1)N(C)CC2 [Compound 32, guatteguamerine]",Antiviral activity (bioactivity) in dose-response analysis,GX_P2V [1],lacked antiviral activity
"COc1ccc(C[C@H]2c3cc(O)c(OC)cc3CCN2C)cc1O [Compound 12, reticuline]",inhibition at 0.39 µM,GX_P2V [1],81.7%
same,inhibition at 0.49485 µM,GX_P2V [1],27.4%
same,inhibition at 0.78 µM,GX_P2V [1],60%
same,inhibition at 0.79588 µM,GX_P2V [1],65.7%
same,inhibition at 1.09691 µM,GX_P2V [1],49.6%
same,inhibition at 1.39794 µM,GX_P2V [1],28.1%
"Oc1ccc(C[C@@H]2NCCc3cc(O)c(O)cc32)cc1 [Compound 6, norcoclaurine]",inhibition at 0.39 µM,GX_P2V [1],55.7%
same,inhibition at 0.78 µM,GX_P2V [1],83.5%
same,inhibition at 0.79588 µM,GX_P2V [1],68.5%
same,cytotoxicity at 0.193125 µM,Vero E6 cells,41.2%
same,cytotoxicity at 0.39 µM,Vero E6 cells,28.8%
same,cytotoxicity at 0.49485 µM,Vero E6 cells,9.98%
same,cytotoxicity at 0.79588 µM,Vero E6 cells,52.9%
same,cytotoxicity at 1.09691 µM,Vero E6 cells,10.9%
"NCCc1ccc(O)c(O)c1 [Compound 4, dopamine, reference compound]",Antiviral activity (bioactivity) in dose-response analysis,GX_P2V [1],do not
same,inhibition at 0.193125 µM,GX_P2V [1],46.7%
same,inhibition at 0.39 µM,GX_P2V [1],33.8%
same,inhibition at 0.49485 µM,GX_P2V [1],92.6%
same,inhibition at 0.79588 µM,GX_P2V [1],41.1%
same,cytotoxicity at 0.49485 µM,Vero E6 cells,23.1%
same,cytotoxicity at 0.78 µM,Vero E6 cells,31.1%
same,cytotoxicity at 1.69897 µM,Vero E6 cells,10.6%
"COc1ccc2cc3[n+](cc2c1OC)CCc1cc2c(cc1-3)OCO2 [berberine (2), berberine, reference compound]",inhibition at 0.49485 µM,GX_P2V [1],52.1%
same,cytotoxicity at 0.193125 µM,Vero E6 cells,7.94%
same,cytotoxicity at 0.49485 µM,Vero E6 cells,11.2%
"COc1cc(C[C@H]2c3cc(OC)c(OC)c(OC)c3CCN2C)c(Oc2cc3c(cc2OC)-c2c(OC)c(OC)c(OC)c4c2[C@H](C3)N(C)CC4)cc1OC [Methoxyadiantifoline (37), methoxyadiantifoline]",Percentage of Inhibition (%),GX_P2V [1],100.000%
"COc1ccc(C[C@@H]2c3cc(Oc4cc(C[C@@H]5c6cc(OC)c(OC)cc6CCN5C)ccc4O)c(OC)cc3CCN2C)cc1 [Neferine (33), Neferine]",inhibition at 0.193 µM,GX_P2V [1],92.5%
same,inhibition at 0.495 µM,GX_P2V [1],91.2%
same,inhibition at 0.796 µM,GX_P2V [1],91.6%
same,inhibition at 1.097 µM,GX_P2V [1],100%
same,inhibition at 1.398 µM,GX_P2V [1],100%
same,inhibition at 1.699 µM,GX_P2V [1],100%
same,EC50,GX_P2V [1]; [11],980 nM
same,EC50,SARS-CoV-2 trVLP [10],6.24 µM
COc1ccc2c(c1O)-c1c(O)c(OC)cc3c1[C@H](C2)N(C)CC3 [(S)-corytuberine],inhibition at 0.39 µM,GX_P2V [1],54.6%
same,inhibition at 0.78 µM,GX_P2V [1],42.8%
COc1cc2c(cc1O)[C@H](Cc1ccc(O)cc1)N(C)CC2 [(S)-N-Methylcolaurine],inhibition at 0.193125 µM,GX_P2V [1],17.4%
same,inhibition at 0.78 µM,GX_P2V [1],15.1%
same,inhibition at 0.79588 µM,GX_P2V [1],91.1%
same,inhibition at 1.09691 µM,GX_P2V [1],52.6%
same,inhibition at 1.69897 µM,GX_P2V [1],20.9%
same,cytotoxicity at 0.193125 µM,Vero E6 cells,6.97%
same,cytotoxicity at 0.78 µM,Vero E6 cells,47%
same,cytotoxicity at 1.39794 µM,Vero E6 cells,2.6%
"COc1ccc2cc1Oc1ccc(cc1)CC1c3cc(c(OC)cc3CCN1C)Oc1c(OC)c(OC)c(O)c3c1C(C2)N(C)CC3 (stereo not drawn) [Thalidezine (35), thalidezine]",inhibition at 0.495 µM,GX_P2V [1],53.4%
same,inhibition at 0.796 µM,GX_P2V [1],99.8%
same,inhibition at 1.097 µM,GX_P2V [1],100%
same,inhibition at 1.398 µM,GX_P2V [1],100%
same,inhibition at 1.699 µM,GX_P2V [1],100%
same,EC50,GX_P2V [1]; [11],2740 nM
same,EC50,SARS-CoV-2 trVLP [10],4.37 µM
"CCC(CC)COC(=O)[C@H](C)N[P@](=O)(OC[C@H]1O[C@@](C#N)(c2ccc3c(N)ncnn23)[C@H](O)[C@@H]1O)Oc1ccccc1 [Remdesivir (30), remdesivir, reference compound]",inhibition at 0.193 µM,GX_P2V [1],91.6%
same,inhibition at 0.495 µM,GX_P2V [1],41.5%
same,inhibition at 0.796 µM,GX_P2V [1],90.9%
same,inhibition at 1.097 µM,GX_P2V [1],99.8%
same,inhibition at 1.398 µM,GX_P2V [1],100%
same,inhibition at 1.699 µM,GX_P2V [1],100%
same,EC50,GX_P2V [1]; [11],1640 nM
same,EC50,"[3]; Severe acute respiratory syndrome coronavirus 2, Vero C1008, read-out: SARS-CoV-2 (Vero E6) EC50",2.19 µM
same,cytotoxicity at 0.796 µM,Vero E6 cells,6.65%
same,cytotoxicity at 1.097 µM,Vero E6 cells,10.7%
same,cytotoxicity at 1.398 µM,Vero E6 cells,9.43%
same,cytotoxicity at 1.699 µM,Vero E6 cells,12.3%
same,EC50,SARS-CoV-2 trVLP [10],0.11 µM
COc1ccc2c(c1O)-c1c(O)c(OC)cc3c1[C@H](C2)[N+](C)(C)CC3 [Magnoflorine],inhibition at 0.79588 µM,GX_P2V [1],34.7%
same,cytotoxicity at 0.193125 µM,Vero E6 cells,3.29%
same,cytotoxicity at 0.39 µM,Vero E6 cells,1.03%
same,cytotoxicity at 0.49485 µM,Vero E6 cells,8.84%
same,cytotoxicity at 0.79588 µM,Vero E6 cells,10.2%
same,cytotoxicity at 1.09691 µM,Vero E6 cells,12.2%
same,cytotoxicity at 1.39794 µM,Vero E6 cells,15.3%
same,cytotoxicity at 1.69897 µM,Vero E6 cells,14.6%
COc1cc2c3cc1Oc1cc(ccc1O)C[C@@H]1c4c(cc(OC)c(O)c4Oc4ccc(cc4)C[C@H]3N(C)CC2)CCN1C [L-curine],inhibition at 0.49485 µM,GX_P2V [1],81.4%
"COc1cc2c(cc1OC)C(Cc1ccc(O)c(Oc3cc4c(cc3OC)CCN(C)C4Cc3ccc(O)cc3)c1)N(C)CC2 (stereo not drawn) [Liensinine (34), liensinine]",inhibition at 0.193 µM,GX_P2V [1],93.8%
same,inhibition at 0.495 µM,GX_P2V [1],84.2%
same,inhibition at 0.78 µM,GX_P2V [1],68.4%
same,inhibition at 0.796 µM,GX_P2V [1],74.4%
same,inhibition at 1.097 µM,GX_P2V [1],87.3%
same,inhibition at 1.398 µM,GX_P2V [1],100%
same,inhibition at 1.699 µM,GX_P2V [1],100%
same,EC50,GX_P2V [1]; [11],700 nM
same,EC50,SARS-CoV-2 trVLP [10],3.09 µM
